Here are results for two compounds from US11786548B2, “Trace element compositions, methods of making and use” (priority 2020, dated 2023).

This data set can be described thus: Stability study of injectable trace element composition in parenteral nutrition admixtures (assay test for zinc, copper, selenium, manganese). Format: physicochemical. From the text:
In order to establish stability data for parenteral nutrition admixed with the injectable compositions of trace elements, we conducted a stability study of injectable trace element composition (trace elements injectable composition, USP) in parenteral nutrition admixtures (assay test); a pH study of parenteral nutrition (PN) admixtures upon addition of injectable trace element composition (trace elements injectable composition, USP); a compatibility study of injectable trace element composition (trace elements injectable composition, USP) in parenteral nutrition admixtures; and a reduced inoculation antimicrobial effectiveness study for injectable trace element composition (trace elements injectable composition, USP) in parenteral nutrition admixtures. […]

The structures appear in SMILES notation. Where “and” joins values, the source holds several entries; their conditions need not be identical. Identical values can stand only once.

`O.O.O.O.O.O=S(=O)([O-])[O-].[Cu+2]` [Copper, cupric sulfate pentahydrate]: the “Assay Day 0” value is recorded as 109.7%; the “Assay Day 5” value was 98.7% and 98.8%; the “Assay Day 7” value is 97.8%; the “Assay Day 10” value is on record as 99.9%. The “Assay Day 14” value was 105.5% and 106.0%.

On to `O.O.O.O.O.O.O.O=S(=O)([O-])[O-].[Zn+2]` [Zinc, zinc sulfate heptahydrate], for which the “Assay Day 0” value is 96.5% and 98.5%; the “Assay Day 5” value is 93.9% and 94.4%; the “Assay Day 7” value was 93.8% and 96.5%; the “Assay Day 10” value is 97.0% and 96.2%. For the same compound, the “Assay Day 14” value was 96.0% and 96.3%.
